Patent US11426397B2, “Piperidinyl- and piperazinyl-substituted heteroaromatic carboxamides as modulators of GPR6” (TAKEDA PHARMACEUTICAL COMPANY LIMITED, priority 2017, dated 2022)

Key:
[1] = biological target: T1, GPR6 receptor expressed in CHO-K1 cells (Homo sapiens, UniProt P46095); assay: In vitro inhibition of cAMP (EC50), cell-based HTRF cAMP assay; conditions: inhibition of constitutive cAMP activity of GPR6 in CHO-K1 cells
T1 construct: expressed in transfected cells
Outline: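 Tetracycline-inducible CHO-K1 line, GPR6 expression induced 20 h with 2 μg/mL doxycycline. Compounds incubated 45 min at 37 °C in Ringer's buffer (pH 7.4) with 0.5% fatty acid free BSA and 300 μM IBMX. Constitutive cAMP read by Lance HTRF; EC50 from four-parameter logistic fit.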

T1 sequence (P46095 whole entry): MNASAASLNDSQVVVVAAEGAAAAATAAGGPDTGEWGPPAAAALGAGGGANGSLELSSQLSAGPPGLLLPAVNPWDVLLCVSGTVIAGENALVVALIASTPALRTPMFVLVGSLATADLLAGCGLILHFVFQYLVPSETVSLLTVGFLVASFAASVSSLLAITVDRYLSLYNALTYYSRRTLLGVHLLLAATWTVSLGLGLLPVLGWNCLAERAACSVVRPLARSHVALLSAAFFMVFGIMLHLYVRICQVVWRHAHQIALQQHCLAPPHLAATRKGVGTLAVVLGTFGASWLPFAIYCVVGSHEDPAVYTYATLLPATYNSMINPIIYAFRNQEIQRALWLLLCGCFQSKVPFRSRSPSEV

Row | SMILES | pEC50, in vitro inhibition of cAMP [1] | melting point
1 | COc1ccncc1C(=O)Nc1cc(S(C)(=O)=O)ccc1N1CCC(Oc2ccc(F)cc2F)CC1 [Example 7, N-(2-(4-(2,4-difluorophenoxy)piperidin-1-yl)-5-(methylsulfonyl)phenyl)-4-methoxynicotinamide] | 7.4 | 173 °C
2 | COc1cc(N2CCC(Oc3ccc(F)cc3F)CC2)c(NC(=O)c2cccnc2OC)cn1 [Example 20, N-(4-(4-(2,4-difluorophenoxy)piperidin-1-yl)-6-methoxypyridin-3-yl)-2-methoxynicotinamide] | 6.9 | 138 °C
3 | COc1ccccc1C(=O)Nc1cc(S(C)(=O)=O)ccc1N1CCC(Oc2ccc(F)cc2F)CC1 [Example 6, N-(2-(4-(2,4-difluorophenoxy)piperidin-1-yl)-5-(methylsulfonyl)phenyl)-2-methoxybenzamide] | 7.3 | 201 °C
